{
  "source": "patent US11505523B2",
  "about": "“HDAC8 inhibitors for treating cancer” (City of Hope, priority 2013, dated 2022)",
  "key": {"[1]": {"tested_on": "inv(16)^+ AML CD34^+ cells", "assay": "Proliferation of inv(16)+ AML CD34+ cells, ATP-based cell viability assay", "parameters": "species or system human", "conditions": "48 h, 2.5 μM to 40 μM, compared to normal CD34+ cells"}, "[2]": {"target": "HDAC6 (Homo sapiens (Human), UniProt Q9UBN7)", "sequence (Q9UBN7 whole entry, species assumed)": "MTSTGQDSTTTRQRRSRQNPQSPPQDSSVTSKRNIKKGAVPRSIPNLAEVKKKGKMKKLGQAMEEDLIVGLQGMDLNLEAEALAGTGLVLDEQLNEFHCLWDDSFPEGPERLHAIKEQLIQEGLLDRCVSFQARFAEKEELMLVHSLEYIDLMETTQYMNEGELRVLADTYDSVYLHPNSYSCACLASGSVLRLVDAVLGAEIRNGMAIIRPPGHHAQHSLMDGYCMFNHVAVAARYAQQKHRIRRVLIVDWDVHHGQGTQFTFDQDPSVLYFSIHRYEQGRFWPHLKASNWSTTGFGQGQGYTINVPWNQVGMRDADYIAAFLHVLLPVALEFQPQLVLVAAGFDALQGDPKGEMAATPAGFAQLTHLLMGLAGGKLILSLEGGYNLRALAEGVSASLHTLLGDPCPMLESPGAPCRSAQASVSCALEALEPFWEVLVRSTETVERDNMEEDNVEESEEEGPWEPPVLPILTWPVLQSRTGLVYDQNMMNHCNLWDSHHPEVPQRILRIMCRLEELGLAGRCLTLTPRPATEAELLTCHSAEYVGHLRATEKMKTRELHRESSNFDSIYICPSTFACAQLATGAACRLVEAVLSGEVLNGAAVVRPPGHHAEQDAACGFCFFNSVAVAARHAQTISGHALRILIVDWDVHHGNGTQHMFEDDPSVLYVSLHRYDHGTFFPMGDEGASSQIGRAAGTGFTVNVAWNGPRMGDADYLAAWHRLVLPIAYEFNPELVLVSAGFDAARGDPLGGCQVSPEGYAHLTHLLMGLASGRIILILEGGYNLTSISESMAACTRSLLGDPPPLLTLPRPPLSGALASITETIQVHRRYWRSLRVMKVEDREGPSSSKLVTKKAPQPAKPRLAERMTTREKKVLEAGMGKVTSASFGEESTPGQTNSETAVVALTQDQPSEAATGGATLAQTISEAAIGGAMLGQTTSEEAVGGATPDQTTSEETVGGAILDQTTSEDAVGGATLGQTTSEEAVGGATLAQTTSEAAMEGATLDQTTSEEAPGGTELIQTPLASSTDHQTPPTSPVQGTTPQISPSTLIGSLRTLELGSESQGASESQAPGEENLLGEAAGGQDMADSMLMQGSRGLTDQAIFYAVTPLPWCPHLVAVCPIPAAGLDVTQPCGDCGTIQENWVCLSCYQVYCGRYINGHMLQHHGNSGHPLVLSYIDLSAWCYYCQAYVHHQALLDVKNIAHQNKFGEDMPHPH", "assay": "Inhibition of purified HDAC6", "conditions": "read-out: HDAC 6 IC50; class II"}, "[3]": {"tested_on": "Cl1-1 cells", "assay": "Cytotoxicity / anti-proliferative activity in CL1-1 lung cancer cells", "conditions": "read-out: Cytotoxicity IC50 Cl1-1; mean SD of three determinations"}, "[4]": {"tested_on": "Ac-p53 in non-inv(16) AML (p53 non-mutated) CD34^+ cells", "assay": "Western blot of Ac-p53 in non-inv(16) AML CD34+ cells", "conditions": "similar treatment", "excerpt": "(§1) We therefore tested whether inhibiting HDAC8 deacetylase activity in inv(16)^+ AML CD34^+ cells could similarly lead to increased p53 acetylation and transcriptional activity."}, "[5]": {"tested_on": "dTomato^+/cKit^+ AML cells (CBFβ-SMMHC^+ LSCs)", "assay": "Ex vivo treatment of CM-induced AML cells followed by transplantation into irradiated congenic mice", "assay_type": "in vivo", "description": "FIGS. 6A-6G. […] FIG. 6A: Schematic illustration of experimental design. […] Progression of AML was monitored by engraftment of AML cells in peripheral blood (PB) over time (4, 8 weeks) and engraftment in bone marrow and spleen was analyzed 8 weeks after transplantation. A cohort of mice was monitored for AML development and disease-free survival. […] Results represent mean±SD. […] FIG. 6D: Representative FACS plots of engrafted dTomato^+/cKit^+ AML cells in the bone marrow or spleen 8 weeks after transplantation.\nAi14 Cre reporter tdTomato mice on C57BL/6 background were obtained from the Jackson Laboratory. To induce CBFβ-SMMHC expression, 4-6 week old Mx1-Cre/Cbfb^56M/+ mice were injected with 250 μg of polyinosinic-polycytidylic acid (pIpC) (InvivoGen) every 2 days for 7 doses. Similarly treated Cbfb^56M/+ littermates without Cre were used as control. Pre-leukemic cells were isolated from mice 2 weeks after the last dose of pIpC treatment. For leukemia development, induced mice were monitored up to 6 months and analyzed when moribund. Transplantation of AML cells (2×10^6 cells/mouse) was performed via tail vein injection into sub-lethally irradiated (6.5 Gy) 6-8-week-old congenic C57BL/6 mice (CD45.1^+/CD45.2^+). All mice were maintained in an AAALAC-accredited animal facility at City of Hope, and all experimental procedures involving mice were performed in accordance with federal and state government guidelines and established institutional guidelines and protocols approved by the Institutional Animal Care and Use Committee at Beckman Research Institute of City of Hope.\nAML LSCs are functionally characterized by their capacity to engraft and reproduce AML disease in transplanted host. […] To test this, we made use of our murine CM-induced AML model allowing for high-level engraftment and reproducible disease upon secondary transplantation. To facilitate tracking of CM-expressing AML cells, we created Cbfb^56M/+/Mx1-Cre mice with a Cre-reporter line expressing tdTomato fluorescence protein following Cre-mediated recombination."}, "[6]": {"tested_on": "p53 target genes in pre-leukemic and leukemic progenitor cells expressing CM", "conditions": "10 μM, 16 h, qRT-PCR", "excerpt": "Relative expression of each target gene was normalized to levels of Hprt. Shown are fold activation compared to levels in vehicle treated cells (dashed line). Results represent the mean±SD.\nWe next examined whether enhanced p53 acetylation translate into increased p53 transcriptional activity. Using qRT-PCR assay, we accessed induction of p53 target genes in CM-ΔC95, CM, and CBFβ expressing cells upon IR (3Gy)."}, "[7]": {"tested_on": "Ac-p53 (K379) in 32D-CM cells", "assay": "Western blot of Ac-p53 in CBFβ-SMMHC (CM)-expressing 32D cells", "assay_type": "cell-based", "text": "Cells were lysed in RIPA buffer containing protease inhibitor cocktail (Roche) and MG132. Antibodies used for IP were conjugated with protein A/G beads using the antibody cross-linking kit (Pierce Biotechnology, Rockford, Ill.) following manufacturer's protocol. For Western blot, proteins were resolved in 10% SDS-PAGE. The antibodies used induced anti-FLAG (Sigma), anti-HDAC8, anti-CBFβ (Santa Cruz), anti-p53 (DO-1), anti-Ac-p53 (K379) (Cell Signaling), anti-p53 (Cell signaling) and anti-β-actin (Sigma). Horseradish peroxidase-conjugated anti-rabbit or anti-mouse secondary antibodies (Jackson ImmunoResearch, West Grove Pa.) were used, followed by detection using the SuperFemto kit (Pierce Biotechnology, Rockford, Ill.).\nClass 1 HDACs, including HDAC1, HDAC2, and HDAC3, reportedly could inhibit p53 activity by deacetylating p53 [41-43]. […] To test this, we used lentivirus (pLKO. 1) mediated expression of 2 independent small-hairpin (sh)-RNA sequences against Hdac8 to specifically knock-down Hdac8 in 32D-CM cells. Cells were exposed to IR (3Gy) and analyzed for levels of p53 acetylation 6 h after."}, "[8]": {"tested_on": "KG1a cells", "assay": "Survival of KG1a AML cells by Annexin V labeling", "assay_type": "cell-based, human", "conditions": "48 h, result in words"}, "[9]": {"target": "HDAC10 (Homo sapiens (Human), UniProt Q969S8)", "sequence (Q969S8 whole entry, species assumed)": "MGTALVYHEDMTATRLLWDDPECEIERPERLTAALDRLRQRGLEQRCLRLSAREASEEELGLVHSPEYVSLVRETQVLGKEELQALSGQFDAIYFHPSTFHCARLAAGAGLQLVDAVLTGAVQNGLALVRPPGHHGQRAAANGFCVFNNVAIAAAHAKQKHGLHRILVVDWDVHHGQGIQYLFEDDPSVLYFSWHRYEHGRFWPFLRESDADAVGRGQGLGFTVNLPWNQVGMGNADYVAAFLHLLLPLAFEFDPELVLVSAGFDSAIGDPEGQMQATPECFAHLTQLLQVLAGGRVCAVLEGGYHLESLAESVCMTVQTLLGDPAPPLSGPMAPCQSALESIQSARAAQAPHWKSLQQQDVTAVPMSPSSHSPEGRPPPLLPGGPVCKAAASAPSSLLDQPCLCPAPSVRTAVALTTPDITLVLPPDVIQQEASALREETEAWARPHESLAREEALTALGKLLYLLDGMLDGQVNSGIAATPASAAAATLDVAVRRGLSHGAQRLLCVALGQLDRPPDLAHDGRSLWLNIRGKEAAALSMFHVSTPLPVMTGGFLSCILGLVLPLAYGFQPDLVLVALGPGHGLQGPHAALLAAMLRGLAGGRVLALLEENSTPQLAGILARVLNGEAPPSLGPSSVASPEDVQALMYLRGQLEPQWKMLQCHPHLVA", "assay": "Inhibition of purified HDAC10", "conditions": "read-out: HDAC 10 IC50; class II"}, "[10]": {"target": "HDAC11 (Homo sapiens (Human), UniProt Q96DB2)", "sequence (Q96DB2 whole entry, species assumed)": "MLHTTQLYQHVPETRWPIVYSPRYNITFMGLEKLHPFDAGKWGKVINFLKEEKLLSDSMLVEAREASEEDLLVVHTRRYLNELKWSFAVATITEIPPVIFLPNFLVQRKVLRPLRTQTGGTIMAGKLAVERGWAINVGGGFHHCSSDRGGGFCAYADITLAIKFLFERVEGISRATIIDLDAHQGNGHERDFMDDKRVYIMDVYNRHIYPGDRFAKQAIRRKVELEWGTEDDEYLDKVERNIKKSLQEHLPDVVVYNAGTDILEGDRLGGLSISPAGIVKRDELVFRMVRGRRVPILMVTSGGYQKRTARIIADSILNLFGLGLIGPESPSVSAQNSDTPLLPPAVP", "assay": "Inhibition of purified HDAC11", "conditions": "read-out: HDAC 11 IC50; class IV"}, "[11]": {"target": "HDAC4 (Homo sapiens (Human), UniProt P56524)", "sequence (P56524 whole entry, species assumed)": "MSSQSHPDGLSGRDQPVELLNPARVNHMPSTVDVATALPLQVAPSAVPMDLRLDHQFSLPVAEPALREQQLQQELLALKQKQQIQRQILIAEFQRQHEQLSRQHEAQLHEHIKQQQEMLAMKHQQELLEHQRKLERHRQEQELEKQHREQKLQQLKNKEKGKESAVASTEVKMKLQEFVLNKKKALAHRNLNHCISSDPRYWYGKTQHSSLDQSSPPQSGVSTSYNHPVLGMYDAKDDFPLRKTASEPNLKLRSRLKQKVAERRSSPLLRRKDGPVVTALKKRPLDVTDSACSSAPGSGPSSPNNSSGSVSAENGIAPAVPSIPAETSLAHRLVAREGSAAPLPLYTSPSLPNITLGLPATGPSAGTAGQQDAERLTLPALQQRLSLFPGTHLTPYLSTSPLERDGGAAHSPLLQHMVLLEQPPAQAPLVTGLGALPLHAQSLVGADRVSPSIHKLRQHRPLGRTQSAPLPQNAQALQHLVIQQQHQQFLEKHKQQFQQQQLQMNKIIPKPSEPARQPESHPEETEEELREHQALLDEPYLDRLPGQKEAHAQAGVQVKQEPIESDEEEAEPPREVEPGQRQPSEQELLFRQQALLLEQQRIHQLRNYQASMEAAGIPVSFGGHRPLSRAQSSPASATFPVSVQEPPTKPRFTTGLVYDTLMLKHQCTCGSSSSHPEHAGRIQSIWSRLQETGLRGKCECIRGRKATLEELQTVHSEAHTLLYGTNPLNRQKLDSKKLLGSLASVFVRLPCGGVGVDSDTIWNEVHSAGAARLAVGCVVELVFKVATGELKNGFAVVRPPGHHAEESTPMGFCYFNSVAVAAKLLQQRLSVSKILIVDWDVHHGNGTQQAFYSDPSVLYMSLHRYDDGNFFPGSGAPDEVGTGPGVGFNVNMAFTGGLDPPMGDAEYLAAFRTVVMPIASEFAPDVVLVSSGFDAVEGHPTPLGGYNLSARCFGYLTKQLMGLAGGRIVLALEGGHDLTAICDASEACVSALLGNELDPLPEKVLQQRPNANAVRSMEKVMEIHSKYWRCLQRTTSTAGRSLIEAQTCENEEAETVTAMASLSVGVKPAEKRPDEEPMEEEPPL", "assay": "Inhibition of purified HDAC4", "conditions": "read-out: HDAC 4 IC50; class II"}, "[12]": {"target": "HDAC2 (Homo sapiens (Human), UniProt Q92769)", "sequence (Q92769 whole entry, species assumed)": "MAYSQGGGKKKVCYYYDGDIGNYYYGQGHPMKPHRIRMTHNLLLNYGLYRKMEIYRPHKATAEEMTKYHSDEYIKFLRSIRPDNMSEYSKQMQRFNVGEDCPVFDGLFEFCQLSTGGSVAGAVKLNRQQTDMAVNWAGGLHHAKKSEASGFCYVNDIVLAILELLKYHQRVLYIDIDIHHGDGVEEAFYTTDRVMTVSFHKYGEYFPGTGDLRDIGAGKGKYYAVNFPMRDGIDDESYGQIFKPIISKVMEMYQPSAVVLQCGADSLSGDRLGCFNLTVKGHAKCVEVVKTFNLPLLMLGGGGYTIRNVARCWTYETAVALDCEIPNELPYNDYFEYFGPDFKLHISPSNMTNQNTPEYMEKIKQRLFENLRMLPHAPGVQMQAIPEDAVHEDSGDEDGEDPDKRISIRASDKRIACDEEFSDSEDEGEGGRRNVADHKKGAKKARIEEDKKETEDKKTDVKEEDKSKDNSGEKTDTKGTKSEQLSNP", "assay": "Inhibition of purified HDAC2", "conditions": "read-out: HDAC 2 IC50; class I"}, "[13]": {"tested_on": "Ac-p53 (K382) in inv(16)^+ AML CD34^+ cells", "assay": "Western blot of Ac-p53 (K382) in inv(16)+ AML CD34+ cells", "conditions": "6 h", "excerpt": "as §1"}, "[14]": {"tested_on": "MOLM13 cells", "assay": "Survival/apoptosis of MOLM13 AML cells by Annexin V labeling", "assay_type": "cell-based, human"}, "[15]": {"tested_on": "normal CD34^+ cells", "assay": "Apoptosis/cytotoxicity in normal CD34+ cells", "text": "Given that the frequency of TP53 mutation is relatively low in AML, altered post-translational modification by HDAC8 could represent an alternative p53-inactivating mechanism and contribute to drug resistance of AML stem cells. We first examined the expression of HDAC8 in CD34^+ stem and progenitor cells isolated from patients with inv(16)^+ AML compared to normal mobilized peripheral blood stem cells (PBSC)."}},
  "note": "pIC50: −log10 of the molar value.",
  "data": [
    {"smiles": "COc1ccc(/C=C/C(=O)NO)c(-c2ccc(-c3ccccc3)cc2)c1", "note": "[Compound 22d, (E)-N-Hydroxy-4-methoxy-2-(biphenyl-4-yl)cinnamide]", "values": [
      {"measurement": "proliferation of inv(16)+ CD34+ cells", "setting": "[1]", "value": "significantly reduced proliferation"},
      {"measurement": "pIC50", "setting": "[2]", "value": "< 7.70"},
      {"measurement": "pIC50", "setting": "[3]", "value": "< 8.00"},
      {"measurement": "Ac-p53 level in non-inv(16) AML CD34+ cells", "setting": "[4]", "value": "did not affect Ac-p53"},
      {"measurement": "frequencies of dTomato+/cKit+ AML cells in BM and spleen", "setting": "[5]; 8 weeks after transplantation, vs vehicle-treated cells", "value": "significantly (p=0.025) reduced frequencies"},
      {"measurement": "total numbers of dTomato+/cKit+ AML cells in BM and spleen", "setting": "[5]; 8 weeks after transplantation, vs vehicle-treated group", "value": "significantly (p=0.025) lower"},
      {"measurement": "dTomato+/cKit+ cells in the peripheral blood", "setting": "[5]; cells treated 10 μM 48 h before transplantation", "value": "barely detectable"},
      {"measurement": "engraftment of dTomato+ and dTomato+/cKit+ cells", "setting": "[5]; equal number (2×10^6) of treated AML cells transplanted", "value": "reduced the engraftment"},
      {"measurement": "AML onset and survival of transplanted mice", "setting": "[5]; mouse, in vivo", "value": "prevented AML reoccurrence"},
      {"measurement": "survival of mice", "setting": "[5]; mouse, in vivo", "value": "enhanced survival"},
      {"measurement": "activation of p53 target genes in progenitor cells expressing endogenous levels of CM", "setting": "[6]", "value": "induces activation of p53 targets"},
      {"measurement": "Ac-p53 level in CM-expressing cells", "setting": "[7]; Western blot, 6 h", "value": "remarkably increased Ac-p53"},
      {"measurement": "Ac-p53 level, in combination with Nutlin-3", "setting": "[7]; compared to Nutlin-3 alone", "value": "enhanced Ac-p53 compared to Nutlin-3 alone"},
      {"measurement": "enhancement of p53 acetylation compared to other HDAC inhibitors", "setting": "[7]; vs MS-275, TV6, PCI-24781", "value": "differential activity in enhancing p53 acetylation"},
      {"measurement": "survival of KG1a cells", "setting": "[8]", "value": "decreases with increased HDAC8i concentration"},
      {"measurement": "pIC50", "setting": "[9]", "value": "< 7.70"},
      {"measurement": "pIC50", "setting": "[10]", "value": "< 7.70"},
      {"measurement": "pIC50", "setting": "[11]", "value": "< 7.70"},
      {"measurement": "pIC50", "setting": "[12]", "value": "< 7.70"},
      {"measurement": "Ac-p53 (K382) level in inv(16)+ AML CD34+ cells", "setting": "[13]", "value": "elevated levels of Ac-p53 (K382)"},
      {"measurement": "pIC50", "setting": "[14]; 48-hr, Annexin V labeling, read-out: MOLM13 Apoptosis IC50", "value": 5.44},
      {"measurement": "survival of MOLM13 cells", "setting": "[14]; 48 h, result in words", "value": "decreases with increased HDAC8i concentration"},
      {"measurement": "difference between CD34+ cells from PBSC and CB", "setting": "[15]; based on cell origin", "value": "no significant difference"},
      {"measurement": "cytotoxicity in normal CD34+ cells", "setting": "[15]; higher dose (40 μM), 48 h", "value": "Modest cytotoxicity"}
    ]}
  ]
}
